The values that follow come from patent publication US5962415A, “Compositions comprising a peptide inhibitor of nuclear protein translocation and an immunosuppressant and methods of use thereof” (Bristol-Myers Squibb Co., priority 1998, dated 1999).

Where a SMILES comes first, the peptide text is derived from it. Where no end group is shown, it is not given here. [ ]: non-standard residue; d: D form.

Experiment [1] has as its system THP-1 human monocytic cells. The experiment in a line: LPS-stimulated cytokine (TNF-α, IL-8) production in THP-1 cells. In kind it is cell-based. The note with it: 5 μM, 5 hr LPS stimulation, FIG. 4A. The protocol:
Amounts of TNF-α, IL-6, IL-8 and IL-10 were determined using the ELISA kits obtained from Genzyme following the manufacturer's instructions.
THP-1 control cells were harvested, washed and set up in RPMI 1640, 10% fetal calf serum, at a concentration of 2.56×10^6 cells/ml. Phosphate buffered saline ("PBS") or one of the two respective polypeptides SV40MEM or SV40 (a peptide having only the SV40 large T antigen NLS sequence) were added to the cells at a concentration of 10 μM or 20 μM. The cells were then plated into a 96-well plate with 0.1 ml/well. The plate was then incubated for 2 hr at 37° C. in a 5% CO2 atmosphere. Following the initial incubation, media or a titration of LPS was added to each of the wells in a volume of 0.1 ml. Thus, the final concentrations of polypeptides were 5 μM or 10 μM. Following 5 hr of LPS stimulation, supernatants were taken and TNF-α and IL-8 levels were determined by ELISA. In addition, cells treated with PBS or polypeptides, but not incubated with LPS, were removed at the time of supernatant removal to determine the viability of the cells following 7 hr of contact with the polypeptides.
This experiment was conducted to compare the inhibitory effect of the SV40MEM polypeptide and other inhibitory polypeptides on LPS induction of cytokine production. THP-1 control cells (ATCC 9/95 stock) were harvested, washed and set up in RPMI 1640, 10% fetal calf serum as described in Example 2. The cells were incubated for 2 hr with PBS or (1) the FGF signal sequence, (2) a polypeptide having the FGF signal sequence and the NLS of NF-κB p50 on the carboxy terminus of the signal sequence, (3) the SV40MEM polypeptide comprised of L-amino acids, or (4) the SV40MEM polypeptide comprised of D-amino acids at a final concentration of 5 μM. The cells were then plated into a 96-well plate with 0.1 ml/well. The plate was then incubated for 2 hr at 37° C. in a 5% CO2 atmosphere. Following the initial incubation, media or a titration of LPS was added to each of the wells in a volume of 0.01 ml/well. Following 5 hr of LPS stimulation, supernatants were taken and TNF-α levels were determined by ELISA.

Another experiment concerns HIVLAI in Jurkat cells. The experiment in a line: Nuclear translocation of HIV genome in Jurkat cells infected with HIVLAI (gag and 2-LTR circle PCR). In kind it is cell-based, HIV-1. Conditions: SV40MEM 0.1 and 1.0 μM, NF-κBMEM 10 μM, 24 hr. As for the experimental part: (§1) HIV-1 M1 p24 levels were assayed using the procedures described in Smithgall et al (1995) AIDS Res. and Human Retrovirus 11:885. Proviral DNA content (gag) was measured using polymerase chain reaction analysis as described in Smithgall et al. (1995), supra.
2-LTR circles, a strictly nuclear form of HIV-1 DNA the expression of which indicates nuclear localization of the viral genome, was measured by as described in Bukrinsky et al (1991) Science 254:423.
Jurkat cells were incubated with the SV40MEM polypeptide for 3 hr with HIVLAI for 1-2 hr. The virus was washed out and the cultures supplemented with the appropriate inhibitor (SV40MEM, 0.1,μM and 1.0 μM; NF-κBMEM, 10 μM). After 24 hr, the cells were collected, lysed and evaluated for HIV-1 DNA by polymerase chain reaction analysis of gag sequences (see FIG. 8A) and 2-LTR circles (see FIG. 8B).

The subject of a further experiment is Murine 70Z/3 B-cells. The experiment in a line: Proliferation of 70Z/3 murine B-cell leukemia cells. In kind it is cell-based. Conditions: 0.2 μM (lowest concentration), 48 hr, FIG. 9. The protocol:
Murine 70Z/3 B-cells were treated with 0, 0.2, 0.5, 1, or 2 μM […] prepared from D-amino acids. On day 0, the cell concentrations of the control and treated cells were the same. After 48 hr of exposure to the peptide, the treated cells were again counted and compared to control cells.

The subject of experiment [2] is 70Z/3 murine leukemia pre-B cells. Nature of the experiment: LPS-stimulated surface antigen expression (κ Ig light chain, IL-2 receptor, CD45) in 70Z/3 cells. In kind it is cell-based. Conditions: for potency and efficacy of L- versus D-amino acid form, LPS-stimulated κ Ig expression: FIG. 3. The protocol: Expression of κ Ig, CD45, CD40, and the interleukin-2 receptor was assayed using standard enzyme-linked immunosorbent assays ("ELISAs") (see, Coligan et al. (eds.) (1991) Current Protocols in Immunology, Wiley & Sons, p. 2.10 or by FACS staining to measure cell-surface markers as described in Raff (1970) Immunology 19:637). Antibodies form cell surface markers were obtained from Pharmingen Co.
The effect of the SV40MEM polypeptide was compared with two additional polypeptides, […] (SEQ ID NO:2) (the "HIV-1MEM" polypeptide), which is composed of the membrane translocation domain of FGF flanked by the NLS from the HIV-1 matrix protein and […] (SEQ ID NO:3) (the "C-MYCMEM" polypeptide), which contains the NLS from the human c-myc oncoprotein (Chelsky et al. (1989), supra, and Dang et al. (1988), supra) using murine 70Z/3 pre-B cells.
Murine 70Z/3 cells (ATCC TlD-158) are a model cell line for analyzing the effects of compounds on B-cell differentiation. In response to S. typhosa LPS (Difco) or γ-interferon, these cells differentiate from surface κ immunoglobulin negative to κ Ig positive.
[…] of: (1) a peptide containing only the FGF signal sequence AAVALLPAVLLALLAP (SEQ ID NO:4) (the "MEM" peptide); (2) a polypeptide having the FGF signal sequence and the NLS of NF-κB p50 on the carboxy terminus of the signal sequence, namely, the NF-κBMEM polypeptide; (3) the SV40MEM polypeptide comprised of L-amino acids; or (4) the SV40MEM polypeptide comprised of D-amino acids. The cells were then incubated with LPS as described in Example 2 and assayed for expression of κ light chain expression.

The test system of another experiment is Human RAJI B-cells. The experiment in a line: Proliferation of RAJI human B-cell leukemia cells. The format is cell-based. The note with it: 5 μM (lowest concentration), 48 hr, FIG. 10. The protocol: Human RAJI B-cells were treated with 0, 5, 10 or 25 μM SV40MEM prepared from D-amino acids. On day 0, the cell concentrations of the control and treated cells were the same. After 48 hr of exposure to the peptide, the treated cells were again counted and compared to control cells.

In another experiment the test system is CD14. Nature of the experiment: LPS binding to CD14 (plate assay with soluble CD14 Ig). The note with it: E. coli AO16 LPS, 2 hours at 4° C., FIG. 14. The protocol: 96-well plates were coated with goat-anti human Ig, soluble CD-1 4 Ig was added, and the plates were incubated overnight at 4° C. The BMS polypeptide, the C-MYCMEM polypeptide, an SV40 NLS polypeptide containing a single SV40 large T-antigen NLS, a c-myc NLS without a translocation sequence (AKRVKL (SEQ ID NO:6)), a control non-NLS polypeptide, 377G, or PBS, were added to the plates and the plates were incubated for 5 min. E. coli AO16 LPS was then added to the plates and the plates were incubated for 2 hours at 4° C. The plates were washed and LPS was detected using 0.5 μg/ml mouse anti-E. coli LPS, followed by goat anti-mouse horseradish peroxidase.

For experiment [3], the system named is HIV-M1 virus in Jurkat human leukemia T-cells. The experiment in a line: Infection of Jurkat T-cells with HIV-M1 virus (PCR of HIV-1 DNA). In kind it is cell-based. Conditions: 2 μM, 4 hr preincubation, day 3, FIG. 7. As for the experimental part:
as §1
(§2) H9 and Jurkat cells were incubated with the HIV-1MEM polypeptide (2,μM) or the control MEM peptide for 4 hr prior to addition of HIV-M1 virus. Cells were harvested on day 3 following injection and the level of HIV-1 DNA evaluated by polymerase chain reaction.

In another experiment the test system is HIV-1 primary isolate M1. The experiment in a line: Infection of anti-CD3 activated PBMCs with HIV-1 primary isolate M1. The format is cell-based. Conditions: seven days, compared to untreated but activated cultures. The protocol:
as §1
PBMCs were obtained washed, cultured, and infected with HIV-1 as described in Dubrovsky et al. (1995) Mol. Med. 1:217-230). PBMCs from a seronegative donor were collected and depleted of CD8^+ T cells by negative selection. The cells were activated with an anti-CD3 monoclonal antibody prepared according to the method described in Wee et al. (1993) J. Exp. Med. 177:219 and incubated for 3 hr with the HIV-1MEM polypeptide. The cells were then incubated with M1 virus isolated from PBMC collected from HIV-infected donors in the presence of inhibitors for 2 hr. The virus was washed out, and the cultures supplemented with the appropriate inhibitor and allowed to incubate for seven days. Virus production was determined by measuring the p24 levels in the culture supernatant (FIG. 6B) and contrasted with the effect of the polypeptide on cell proliferation (FIG. 6A), which virus load was determined by polymerase chain reaction analysis of proviral DNA content (gag) (FIG. 6C). The MEM peptide represents the FGF membrane translocating portion of the HIV-1MEM polypeptide.

In experiment [4] the test system is HIV-M1 virus in H9 human lymphoma T-cells. Nature of the experiment: Infection of H9 T-cells with HIV-M1 virus (PCR of HIV-1 DNA). In kind it is cell-based. The note with it: 2 μM, 4 hr preincubation, day 3, FIG. 7. The protocol: as §1, §2

As for `CSCC[C@H](NC(=O)[C@H](CC(C)C)NC(=O)[C@H](CCCCN)NC(=O)[C@H](CCC(N)=O)NC(=O)[C@H](CCCNC(=N)N)NC(=O)[C@H](CCCCN)NC(=O)[C@H](CCCNC(=N)N)NC(=O)[C@H](CCC(N)=O)NC(=O)[C@@H](NC(=O)[C@@H]1CCCN1C(=O)[C@H](C)NC(=O)[C@H](CC(C)C)NC(=O)[C@H](CC(C)C)NC(=O)[C@H](C)NC(=O)[C@H](CC(C)C)NC(=O)[C@H](CC(C)C)NC(=O)[C@@H](NC(=O)[C@H](C)NC(=O)[C@@H]1CCCN1C(=O)[C@H](CC(C)C)NC(=O)[C@H](CC(C)C)NC(=O)[C@H](C)NC(=O)[C@@H](NC(=O)[C@H](C)NC(=O)[C@H](C)N)C(C)C)C(C)C)C(C)C)C(=O)N1CCC[C@H]1C(N)=O` [NF-κBMEM], the “LPS-induced TNF-α expression” value in experiment [1] was “did not significantly inhibit”. Further, the “viral internalization / virus entry (gag sequences)” value in the experiment on HIVLAI in Jurkat cells (FIG. 8A) was “no effect”. Moreover, the “translocation of the viral genome into the nucleus (2-LTR circles)” value in the experiment with HIVLAI in Jurkat cells (FIG. 8B) is listed as “no effect”.
`CC(C)C[C@@H](NC(=O)[C@@H](C)NC(=O)[C@@H](CC(C)C)NC(=O)[C@@H](CC(C)C)NC(=O)[C@H](NC(=O)[C@@H](C)NC(=O)[C@H]1CCCN1C(=O)[C@@H](CC(C)C)NC(=O)[C@@H](CC(C)C)NC(=O)[C@@H](C)NC(=O)[C@H](NC(=O)[C@@H](C)NC(=O)[C@@H](C)NC(=O)[C@H](NC(=O)[C@@H](CCCCN)NC(=O)[C@@H](CCCNC(=N)N)NC(=O)[C@@H](CCCCN)NC(=O)[C@@H](CCCCN)NC(=O)[C@@H](CCCCN)NC(=O)[C@H]1CCCN1)C(C)C)C(C)C)C(C)C)C(=O)N[C@H](CC(C)C)C(=O)N[C@H](C)C(=O)N1CCC[C@@H]1C(=O)N[C@H](CCCCN)C(=O)N[C@H](CCCCN)C(=O)N[C@H](CCCCN)C(=O)N[C@H](CCCNC(=N)N)C(=O)N[C@H](CCCCN)C(=O)N[C@@H](C(=O)N[C@H](CS)C(N)=O)C(C)C` [SV40MEM (D-amino acid form)] (H-[dP][dK][dK][dK][dR][dK][dV][dA][dA][dV][dA][dL][dL][dP][dA][dV][dL][dL][dA][dL][dL][dA][dP][dK][dK][dK][dR][dK][dV][dC]-NH2; N-terminus and C-terminus assumed): the “proliferation (cell count versus control)” value in the experiment on Murine 70Z/3 B-cells and with Human RAJI B-cells was “inhibited” in each case. The “potency and efficacy of L- versus D-amino acid form, LPS-stimulated κ Ig expression” value in experiment [2] is “equally potent and efficacious”. For the same molecule, the “efficacy at inhibiting κ Ig light chain production (comparison of three polypeptides)” value in [2] (dose-response data, FIG. 1B) is recorded as “approximately equally efficacious”. Besides, the “LPS-induced TNF-α expression” value in experiment [1] is reported as “significantly inhibited”.
With AKRVKL [c-myc NLS, reference compound], in the experiment on CD14, the “binding of LPS to CD14” value was “did not block binding”.
On to “KKKYKAAVALLPAVLLALLAKKKYKC [HIV-1MEM, membrane translocation domain of FGF flanked by the NLS from the HIV-1 matrix protein]”, for which, in [3], the “infection (level of HIV-1 DNA by PCR)” value was “inhibited infection”. In addition, in the experiment on HIV-1 primary isolate M1 (FIG. 6B), the “virus production (p24 levels in culture supernatant)” value was “significantly reduced”. Further, the “virus load (PCR of proviral DNA content, gag)” value with HIV-1 primary isolate M1 (FIG. 6C) was “significantly reduced”. Also, in [2] (dose-response data, FIG. 1B), the “efficacy at inhibiting κ Ig light chain production (comparison of three polypeptides)” value was “approximately equally efficacious” and the “potency at inhibiting κ Ig light chain production compared with SV40MEM” value was “not as potent”. For the same molecule, in experiment [4], the “infection (level of HIV-1 DNA by PCR)” value is reported as “inhibited infection”.
In the case of “PKKKRKVAAVALLPAVLLALLAPKKKRKVC-NH2 (C-terminus assumed) [SV40MEM (L-amino acid form)]”, the “potency and efficacy of L- versus D-amino acid form, LPS-stimulated κ Ig expression” value in experiment [2] is “equally potent and efficacious”. Moreover, in experiment [1], the “LPS-induced TNF-α expression” value was “significantly inhibited”.
